Results published in paper PMC11400632, “Substrate selectivity and inhibition of the human lysyl hydroxylase JMJD7” (Protein Science : A Publication of the Protein Society, 2024).
Square brackets hold non-standard residues; d marks the D form. Ends that are not written are not given here. Met(O) = CS(=O)CC[C@H](N)C(=O)O; SeMet = C[Se]CC[C@H](N)C(=O)O; Nle = CCCC[C@H](N)C(=O)O

Experiments:
human JMJD7 [1] = target: T1, human JMJD7 (Homo sapiens, UniProt P0C870); experiment: LC-MS assay of JMJD7-catalyzed hydroxylation/oxidation of DRG1 peptides; type: biochemical; settings: for extent of hydroxylation by JMJD7 at higher 2OG concentration / degree of oxidation (+16 Da) of cysteine/methionine analog peptides by JMJD7: 2 μM JMJD7, 10 μM peptide; for extent of hydroxylation by JMJD7 at higher 2OG concentration: 20 μM 2OG, pH 7.5, 2 h incubation; for fate of the JMJD7 C3-hydroxylation product: 2 h; for extent of hydroxylation (+16 Da) by JMJD7: standard conditions: 2 μM JMJD7, 10 μM DRG1 peptide, room temperature
T1 construct: human JMJD7 (residues 1–316) with an N‐terminal His6‐tag; His6 (N); made in house; host or cells: Escherichia coli Rosetta (DE3)
Experimental: Initial assays were carried out by incubation of purified recombinant (Markolovic et al., [2018]) human JMJD7 (2 μM) in the presence of a DRG1 derived peptide (10 μM), 2OG (10 μM), ferrous ammonium sulfate (FAS, 10 μM), and L‐ascorbate (LAA, 100 μM) in Tris buffer at pH 7.5 for 2 h at room temperature. Potential conversion to a hydroxylated product (+16 Da mass shift) was monitored by liquid‐chromatography‐mass‐spectrometry (LC–MS). […] The assay results also implied that DRG1‐Orn was hydroxylated, but to a lower extent (~21%) than DRG1‐Lys. […] The alcohol‐containing peptide hydroxynorleucine (DRG1‐HNle), was hydroxylated at relatively low levels (~24%), implying that H‐bonding interactions and positive charge of the N^ɛ‐amino group of lysine are important for efficient binding and catalysis, but that a neutral alcohol can still be accommodated at the active site (Figure 3f) (Markolovic et al., [2018]).
All reagents were procured from Sigma Aldrich. 2‐Oxoglutarate (2OG, 10 mM) and L‐ascorbic acid (LAA, 50 mM) solutions were prepared freshly by dissolving the solids in deionized water. Ferrous ammonium sulfate (FAS) solution was prepared freshly by dissolving FAS at 400 mM in 20 mM HCl with subsequent dilution to 1 mM using deionized water. JMJD7 assays using DRG1 (16–40) based peptides were performed with the following conditions: (i) 2 or 5 μM JMJD7, 10 μM DRG1 peptide, 100 μM LAA, 10 μM FAS, 10 μM 2OG in mM 50 Tris‐buffer (pH 7.5), (ii) 2 μM JMJD7, 10 μM DRG1 peptide, 100 μM LAA, 10 μM FAS, 20 μM 2OG in mM 50 Tris‐buffer (pH 7.5). Reactions were initiated by addition of enzyme to the cosubstrate/substrate solution in a final reaction volume of 50 μL with 2 h incubation at room temperature. A positive control reaction containing enzyme and a validated peptide substrate was included in all screening studies. After 2 h, reactions were stopped by addition of 5 μL of 10% (v/v) LC–MS grade formic acid (Fisher Scientific) and transferred to a 96 well plate (Agilent). Intact mass peptide analysis was performed by LC–MS using an Agilent 1290 infinity II LC system equipped with an Agilent 1290 multisampler and an Agilent 1290 high speed pump and connected to an Agilent 6550 accurate mass iFunnel quadrupole time of flight (Q‐TOF) mass spectrometer. The reaction mixture (4 μL) was injected and loaded onto a ZORBAX RRHD Eclipse Plus C18 column (Agilent). Solvent A consisted of LC–MS grade water containing 0.1% (v/v) formic acid and solvent B consisted of MeCN containing 0.1% (v/v) formic acid. Peptides were separated using a step wise gradient (0 min – 95% solvent A, 1.0 min – 80% solvent A, 3.0 min – 45% solvent A, 4.0 min – 45% solvent A, 5.0 min – 0% solvent A, 6.0 min – 0% solvent A, 7.0 min – 95% solvent A). This was followed by a 3 min elution with 95% solvent A to re‐equilibrate the column. Flow rates were 0.2 mL/min. The mass spectrometer was operated in the positive ion mode with a drying gas temperature (280°C), drying gas flow rate (13 L min^−1), nebulizer pressure (40 psig), sheath gas temperature (350°C), sheath gas flow rate (12 L min^−1), capillary voltage (4000 V), nozzle voltage (1000 V). Data were analyzed using Agilent MassHunter Qualitative Analysis (Version B.07.00) software.

human JMJD7 [2] = target: T1, human JMJD7; experiment: SPE-MS time-course and steady-state kinetics of JMJD7-catalyzed hydroxylation; type: biochemical; settings: for k cat/K m / k cat / K m: SPE-MS, DRG1 peptide 0.1–5.0 μM, 2OG 20 μM, FAS 10 μM, LAA 100 μM, JMJD7 100 nM; for k cat: in min^-1; for K m: in µM (unit assumed)
Experimental: Having shown that introduction of γ‐thialysine and γ‐azalysine residues into DRG1 peptides generates substrates that are efficiently hydroxylated by JMJD7, giving nascent products that fragment to give formylglycine, we explored whether these two peptides could compete with the DRG1‐Lys substrate for JMJD7 catalysis. The reactions of DRG1‐Lys, DRG1‐CysNH2 and DRG1‐LysN (1.0 μM) by JMJD7 (50 nM) were investigated as a function of time using SPE‐MS assays.
To quantify the relative efficiencies of DRG1‐Lys and the substrate analog DRG1‐LysE, we carried out kinetics analyses using SPE‐MS assays as the levels of JMJD7‐catalyzed hydroxylation were sufficient for these two substrates.
JMJD7 turnover assays for kinetic studies were performed in 96‐well polypropylene assay plates with 1.0 mL total reaction volume using a series of concentrations of the DRG1 peptide (0.1–5.0 μM), 2OG (20 μM), FAS (10 μM), LAA (100 μM). Reactions were initiated by the addition of JMJD7 (100 nM). MS‐analyses were performed using a RapidFire RF 365 high‐throughput sampling robot (Agilent) attached to an iFunnel Agilent 6550 accurate mass quadrupole time‐of‐flight (Q‐TOF) mass spectrometer operated in the positive ionization mode. The RapidFire RF 365 high‐throughput sampling robot was programmed to aspirate samples from the reaction mixture at the indicated time intervals. Assay samples were loaded onto a C4 solid phase extraction (SPE) cartridge and peptides were eluted using given previous protocols (Tumber et al., [2023]). The % conversion of the hydroxylation reaction were calculated from the ion chromatogram data by integrating peak areas using RapidFire Integrator 4.3.0 software (Agilent).

[3] = 10 μM 2OG, 10 μM FAS, 100 μM LAA
[4] = standard conditions: 2 μM JMJD7, 10 μM peptide, 10 μM 2OG
[5] = 10 μM 2OG, 10 μM FAS, 100 μM LAA, Tris pH 7.5, 2 h
[6] = 1.0 μM peptide, 50 nM JMJD7, SPE-MS time-course

T1 sequence (P0C870 whole entry, the tested form may be a part): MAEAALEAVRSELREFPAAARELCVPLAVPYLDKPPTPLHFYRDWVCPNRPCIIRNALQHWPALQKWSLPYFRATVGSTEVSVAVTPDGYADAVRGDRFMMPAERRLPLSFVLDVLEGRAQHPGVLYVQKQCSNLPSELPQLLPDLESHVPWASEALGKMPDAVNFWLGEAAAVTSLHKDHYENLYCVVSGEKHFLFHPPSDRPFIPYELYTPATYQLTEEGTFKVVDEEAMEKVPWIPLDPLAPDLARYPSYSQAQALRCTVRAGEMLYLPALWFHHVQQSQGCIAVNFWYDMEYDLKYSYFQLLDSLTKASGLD

“ARTQKNAhpATAHHLGLLKARLAKLRR [DRG1‐Ahp, 25-mer DRG1 (16–40) peptide with Ahp at position 22]” was tested, and the “extent of hydroxylation by JMJD7 at higher 2OG concentration” value (“extent of hydroxylation by JMJD7” for short) (human JMJD7 [1]; 10 μM FAS, 100 μM LAA) was “did not manifest evidence for hydroxylation”.
In the case of “ARTQKNCysMeATAHHLGLLKARLAKLRR [DRG1‐CysMe, 25-mer DRG1 (16–40) peptide with CysMe at position 22]”, the “degree of oxidation (+16 Da) of cysteine/methionine analog peptides by JMJD7” value (human JMJD7 [1]; [3]) is reported as “oxidized relatively efficiently”.
With “ARTQKNCysNHmeATAHHLGLLKARLAKLRR [DRG1‐CysNHMe, 25-mer DRG1 (16–40) peptide with γ-methylthialysine at position 22]” the “possibly stable hemithioacetal product detected by MS” value (human JMJD7 [1]; standard conditions: 2 μM JMJD7, 10 μM peptide, 10 μM 2OG, 10 μM FAS, 100 μM LAA, Tris pH 7.5, 2 h) was 12% and the “fate of the JMJD7 C3-hydroxylation product” value (human JMJD7 [1]; [4]) was “fragmentation to form DRG1‐formylglycine and its hydrated products”.
With “ARTQKND-LysATAHHLGLLKARLAKLRR [DRG1‐D‐Lys, 25-mer DRG1 (16–40) peptide with epimeric D-lysine at position 22]” the “extent of hydroxylation by JMJD7” value (human JMJD7 [1]; 10 μM FAS, 100 μM LAA) was ~ 6% and the “extent of hydroxylation (+16 Da) by JMJD7” value (“extent … (+16 Da) by JMJD7” for short) (human JMJD7 [1]; [5]) was “not hydroxylated within detection limits”.
In the case of “ARTQKNH[Nle]ATAHHLGLLKARLAKLRR [DRG1‐HNle, 25-mer DRG1 (16–40) peptide with hydroxynorleucine at position 22]”, the “extent of hydroxylation by JMJD7” value (human JMJD7 [1]; 10 μM FAS, 100 μM LAA) is reported as ~ 56%, the “extent … (+16 Da) by JMJD7” value (human JMJD7 [1]; [5]) is reported as ~ 24% and the “relative rate / turnover in the time-course” value (“relative rate / turnover” for short) (human JMJD7 [2]; [6]) is reported as “turnover was low”.
For “ARTQKNLysATAHHLGLLKARLAKLRR [DRG1‐Lys, 25-mer DRG1 fragment peptide (residues 16–40), C-terminal amide, Lys at position 22; JMJD7 substrate, reference compound]”, the “extent of hydroxylation by JMJD7” value (human JMJD7 [1]; 10 μM FAS, 100 μM LAA) was ~ 98%, the “extent … (+16 Da) by JMJD7” value (human JMJD7 [1]; [5]) was ~ 78% and the “hydroxylation within 9 min” value (human JMJD7 [2]; 1.0 μM peptide, 50 nM JMJD7, SPE-MS time-course, 9 min) was ~ 90%. The “k cat/K m” value (human JMJD7 [2]) was 155000 M⁻¹ s⁻¹, the k cat (human JMJD7 [2]) was 13.0 ± 0.36 and the K m (human JMJD7 [2]) was 1.4 ± 0.59. For the same substance, the “substrate inhibition of JMJD7” value (human JMJD7 [2]; increased substrate concentrations, 100 nM JMJD7, 20 μM 2OG, 10 μM FAS, 100 μM LAA, pH 7.5) was “substrate inhibition of JMJD7 was observed”.
With “ARTQKNLysEATAHHLGLLKARLAKLRR [DRG1‐LysE, 25-mer DRG1 (16–40) peptide with (E)-dehydrolysine at position 22]” the “extent … (+16 Da) by JMJD7” value (human JMJD7 [1]; [5]) was 90%, the “k cat/K m” value (human JMJD7 [2]) was 133000 M⁻¹ s⁻¹ and the k cat (human JMJD7 [2]) was 24.7 ± 0.36. For the same substance, the K m (human JMJD7 [2]) was 3.1 ± 0.81.
“ARTQKNLysMeATAHHLGLLKARLAKLRR [DRG1‐LysMe, 25-mer DRG1 (16–40) peptide with LysMe at position 22]” was tested, and the “extent of hydroxylation by JMJD7” value (human JMJD7 [1]; 10 μM FAS, 100 μM LAA) was ~ 7%.
“ARTQKNLysNATAHHLGLLKARLAKLRR [DRG1‐LysN, 25-mer DRG1 (16–40) peptide with γ-azalysine at position 22]” was tested, and the “fate of the JMJD7 C3-hydroxylation product” value (human JMJD7 [1]; [4]) was “fragmentation to form DRG1‐formylglycine and its hydrated products” and the “relative rate / turnover” value (human JMJD7 [2]; [6]) was “oxidized more slowly than DRG1‐CysNH2”.
In the case of ARTQKNMetATAHHLGLLKARLAKLRR [DRG1‐Met], the “degree of oxidation (+16 Da) of cysteine/methionine analog peptides by JMJD7” value (human JMJD7 [1]; [3]) is reported as ~ 86% and the “relative rate / turnover” value (human JMJD7 [2]; [6]) is reported as “turnover appeared to be low”.
For “ARTQKN[Met(O)]ATAHHLGLLKARLAKLRR [DRG1‐MetO]”, the “degree of oxidation (+16 Da) of cysteine/methionine analog peptides by JMJD7” value (human JMJD7 [1]; [3]) was “showed no evidence for oxidation”.
For “ARTQKN[SeMet]ATAHHLGLLKARLAKLRR [DRG1‐SeMet, 25-mer DRG1 (16–40) peptide with SeMet at position 22]”, the “degree of oxidation (+16 Da) of cysteine/methionine analog peptides by JMJD7” value (human JMJD7 [1]; [3]) was “showed no evidence for oxidation”.
For “ARTQKNhLysATAHHLGLLKARLAKLRR [DRG1‐hLys, 25-mer DRG1 (16–40) peptide with hLys at position 22]”, the “extent of hydroxylation by JMJD7” value (human JMJD7 [1]; 10 μM FAS, 100 μM LAA) was ~ 5% and the “extent … (+16 Da) by JMJD7” value (human JMJD7 [1]; [5]) was “did not undergo hydroxylation within detection limits”.
For “ARTQKNhMetATAHHLGLLKARLAKLRR [DRG1‐hMet, 25-mer DRG1 (16–40) peptide with homomethionine at position 22]”, the “degree of oxidation (+16 Da) of cysteine/methionine analog peptides by JMJD7” value (human JMJD7 [1]; [3]) was ~ 89%.
“ARTQKNhSerATAHHLGLLKARLAKLRR [DRG1‐hSer, 25-mer DRG1 (16–40) peptide with hSer at position 22]” was tested, and the “degree of oxidation (+16 Da) of cysteine/methionine analog peptides by JMJD7” value (human JMJD7 [1]; [3]) was “did also not undergo oxidation”.
In the case of “ARTQKNmeOhSerATAHHLGLLKARLAKLRR [DRG1‐meOhSer, 25-mer DRG1 (16–40) peptide with meOhSer at position 22]”, the “degree of oxidation (+16 Da) of cysteine/methionine analog peptides by JMJD7” value (human JMJD7 [1]; [3]) is reported as “showed no evidence for oxidation”.
For “ARTQKNnArgATAHHLGLLKARLAKLRR [DRG1‐nArg, 25-mer DRG1 (16–40) peptide with nArg at position 22]”, the “extent of hydroxylation by JMJD7” value (human JMJD7 [1]; 10 μM FAS, 100 μM LAA) was “did not manifest evidence for hydroxylation”.
